Peptide text beside a SMILES is read from it.
Experiments:
[1] = test system: HIV-1; details: Experiment 6; Day 7 HIV-1; 100 μM; HUT78 cells
Method: In experiment 6 (Table 7 and FIG. 1), approximately 200,000 HUT78 cells were infected with HIV-1 at 25 TCID50 to test the inhibitory effect of GPG-NH2, RQG-NH2, KQG-NH2, ALG-NH2, GVG-NH2, VGG-NH2, ASG-NH2, SLG-NH2, and SPT-NH2. The HUT cells were resuspended in lml of RPMI 1640 medium supplemented with 10% (v/v) heat-inactivated fetal bovine serum (FBS, GIBCO), penicillin (100 u/ml), streptomycin (100 u/ml) and Polybrene (Sigma, 2 μg/ml) with or without the presence of the different small peptides (100 μM) mentioned above. Thereafter, the HIV-1 virus was added at 25 TCID50 in a volume of 20 μl. Cells were incubated with the virus at 37° C. for one hour and, subsequently, the cells were pelleted at 170×g for seven minutes. The cells were then washed three times in RPMI medium without peptides at room temperature by cell sedimentation at 170×g for seven minutes, as above. After the final wash, the cells were resuspended in RPMI culture medium containing the peptides in 24-well plate (Costar corporation) and were kept at 37° C. in 5% CO2 with humidity. Culture supernatants were collected when medium was changed at day 4, 7, and 11 post infection and viral p24 production was monitored by using an HIV-1 p24 ELISA kit (Abbott Laboratories, North Chicago, USA).

[2] = test system: HIV-1 isolate p7227 (high AZT); assay: resistant HIV-1 isolates in PBMC, p24 ELISA; type: cell-based; details: GPG 100 μM, 14 days post infection
[3] = test system: GPG-deleted mutant mp10; assay: infectivity in MT-2 cells, p24 ELISA, GPG-deleted mutant mp10; type: cell-based, HIV-1
Method: Accordingly, the ability of GPG-NH2 to inhibit the infectivity of wild-type and V3-loop deletion mutants (GPG domain) in MT-2 cells was determined. In these experiments, approximately 200,000 MT-2 cells were infected with HIV-1Bru wild-type and GPG-deleted mutants mp8 and mp10 at 25 TCID50 to test the inhibitory effect of GPG-NH2 The MT-2 cells were resuspended in 1 ml of RPMT 1640 medium supplemented with 10% (v/v) heat-inactivated fetal bovine serum (FBS, GIBCO), penicillin (100μ/ml), streptomycin (100μ/ml) and Polybrene (Sigma 2 μg/ml) with or without the presence of GPG-NH2 at concentration 20 of μM and 100 μM. Thereafter, viruses were added at 25 TCID50 in a volume of 20-30 μl. Cells were incubated with virus at 37° C. for 16 hr then loosely pelleted by centrifugation at 170×g for 7 minutes. The cells were then washed three times in RPMI medium without peptides at room temperature by cell sedimentation at 170×g for 7 minutes as above. After the final wash, the cells were resuspended in RPMI culture medium in 24-well plate (Costar corporation) then kept at 37° C. in 5% CO2 with humidity. Culture supernatants were collected when medium was changed at day 4, 7, 11 and 14 post infection. To monitor the replication of virus, HIV-1 p24 antigen protein in the supernatants from day 7 and 14 was assayed by a ELISA kit (Abbott Laboratories) which has a linear dose-response range from 20 pg to 640 pg of p24 per ml and the p24 amount can be determined with aid of the regression line.

[4] = test system: HIV-1 SF-2 virus strain; assay: stability in human blood and plasma by HIV-1 replication assay in HUT78 cells; type: in vitro ADME; details: incubated 1, 2 and 4 hours at 37° C. in human blood or plasma; final 20 μM or 100 μM; p24 day 7 and 14
Method: This example describes several studies that were performed to access the stability of small peptides in human blood and plasma. Accordingly, human blood was taken freshly and treated with EDTA. Plasma was separated by centrifuging at 2,500 rpm for 20 minutes. GPG-NH2 was added into blood or plasma at concentrations of 10 mM or 50 mM followed by incubation in 37° C. for 1, 2 and 4 hours, respectively. […] After incubation in 37° C., the GPG-NH2 containing blood was centrifuged at 2,500 rpm for 20 minutes to isolate plasma. Some of the plasma samples were treated with CaCl2 at concentration of 5 mM in 37° C. for 10 minutes followed by centrifuging at 13,000 rpm for 30 minutes and the supernatant are referred to as CaCl2 treated plasma. Then all the GPG-NH2 containing plasma samples were diluted in RPMI medium to give the final concentrations 20 μM or 100 μM of GPG-NH2 (500 fold dilutions) and were then used in HIV-1 replication assays.
The replication assays were performed on HUT78 cells and the HIV-1 SF-2 virus strain was used. Briefly, approximately 200,000 cells were resuspended in the diluted GPG-amide containing medium, plasma, or plasma from blood. The GPG-NH2 containing medium, plasma, or plasma from blood was incubated with the cells for either 1 hr, 2 hr, or 4 hr at 37° C. Subsequently, SF-2 virus was added at 25 TCID50. […]

[5] = test system: HIV-1 isolate p7163 (inter AZT); assay: resistant HIV-1 isolates in PBMC, p24 ELISA; type: cell-based; details: GPG 100 μM, 14 days post infection
[6] = test system: HIV-1 RNA; assay: Northern blot of HIV-1 RNA in infected H-9 cells; type: cell-based
Method: To study proviral DNA and viral RNA synthesis, DNA and RNA from HIV-1 infected H-9 cells cultured in the presence of a small peptide were prepared at various time points (0-48 h).
By Northern blot analysis, three RNA bands (9.2, 4.3, 2.0 kb) were detected 24-48 h after infection. The 9.2 kb RNA acts as both the genomic RNA and as the mRNA for the gag and pol genes. The 4.3 kb singly-spliced RNA represents at least the env gene, and the multiply-spliced 2 kb RNA encodes for the regulatory genes.

NCC(=O)N1CCC[C@H]1C(=O)NCC(N)=O [GPG-NH2, glycyl-prolyl-glycine amide] (H-Gly-Pro-Gly-NH2)
p24 [1]: 560 pg/mL | reduction (%) [1]: 97% | % reduction [2]: (100%) | HIV-1 p24 [2]: <500 pg/mL | p24 ([3]; GPG 20 μM, Day 7): 1560 pg/mL | reduction (%) ([3]; GPG 20 μM, Day 7): 50% | p24 ([3]; GPG 20 μM, Day 14): 51500 pg/mL | reduction (%) ([3]; GPG 20 μM, Day 14): 89% | p24 ([3]; GPG 100 μM, Day 7): 173 pg/mL | reduction (%) ([3]; GPG 100 μM, Day 7): 94% | p24 ([3]; GPG 100 μM, Day 14): 47700 pg/mL | reduction (%) ([3]; GPG 100 μM, Day 14): 90% | ability to inhibit HIV-1 after incubation in medium, plasma or blood [4]: No significant difference | % reduction [5]: (100%) | HIV-1 p24 [5]: <500 pg/mL | expression of HIV-1 RNAs (9.2, 4.3, 2.0 kb) ([6]; 20 μM, up to 48 h post infection): no inhibitory effect | HIV-1 RNA ([6]; 200 μM and 2,000 μM, 48 h after infection): a reduction of HIV-1 RNA was noticed

Reference: patent publication US20020091086A1, “Peptides that block viral infectivity and methods of use thereof” (priority 1999, published 2002)
